Measurements published in patent US20070172471A1, “Method for identifying an anti- streptococcal agent and its use for treating streptococcal infections” (Hansa Medical AB, priority 2003, published 2007).
Peptide text beside a SMILES is read from it.

T1: fibrinogen (Homo sapiens, UniProt P02671+P02675+P02679)
T1 sequence (P02671 20-644 isoform P02671-2 limits assumed): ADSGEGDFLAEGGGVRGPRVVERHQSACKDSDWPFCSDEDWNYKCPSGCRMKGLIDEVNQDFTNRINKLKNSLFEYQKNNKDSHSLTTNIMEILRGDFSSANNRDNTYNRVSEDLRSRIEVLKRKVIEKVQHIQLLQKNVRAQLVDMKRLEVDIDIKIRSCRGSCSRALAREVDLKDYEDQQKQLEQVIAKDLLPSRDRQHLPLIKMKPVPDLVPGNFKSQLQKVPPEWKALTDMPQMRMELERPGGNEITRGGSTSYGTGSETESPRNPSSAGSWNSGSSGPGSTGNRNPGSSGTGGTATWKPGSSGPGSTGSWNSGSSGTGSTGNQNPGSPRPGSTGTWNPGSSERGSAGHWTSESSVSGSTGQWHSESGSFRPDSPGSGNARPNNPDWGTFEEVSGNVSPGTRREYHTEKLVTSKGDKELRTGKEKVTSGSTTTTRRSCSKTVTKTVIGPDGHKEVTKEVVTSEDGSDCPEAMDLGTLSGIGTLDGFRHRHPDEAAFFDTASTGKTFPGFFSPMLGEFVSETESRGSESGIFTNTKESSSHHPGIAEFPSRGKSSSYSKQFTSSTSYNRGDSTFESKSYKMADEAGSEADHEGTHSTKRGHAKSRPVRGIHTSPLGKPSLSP
T1 sequence (P02675 31-491): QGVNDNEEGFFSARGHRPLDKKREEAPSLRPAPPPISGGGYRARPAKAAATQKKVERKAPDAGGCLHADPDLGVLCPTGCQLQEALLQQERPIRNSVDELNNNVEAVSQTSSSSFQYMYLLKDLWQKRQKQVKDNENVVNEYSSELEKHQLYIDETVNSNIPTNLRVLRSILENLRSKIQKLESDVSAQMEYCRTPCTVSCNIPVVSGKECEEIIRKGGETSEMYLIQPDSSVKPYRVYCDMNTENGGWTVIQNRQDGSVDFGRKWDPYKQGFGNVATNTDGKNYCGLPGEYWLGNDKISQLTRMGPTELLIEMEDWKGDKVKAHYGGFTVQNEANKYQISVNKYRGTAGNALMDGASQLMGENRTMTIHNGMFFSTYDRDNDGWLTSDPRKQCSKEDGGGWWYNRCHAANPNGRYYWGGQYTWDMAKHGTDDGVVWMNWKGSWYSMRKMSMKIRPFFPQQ
T1 sequence (P02679 27-453): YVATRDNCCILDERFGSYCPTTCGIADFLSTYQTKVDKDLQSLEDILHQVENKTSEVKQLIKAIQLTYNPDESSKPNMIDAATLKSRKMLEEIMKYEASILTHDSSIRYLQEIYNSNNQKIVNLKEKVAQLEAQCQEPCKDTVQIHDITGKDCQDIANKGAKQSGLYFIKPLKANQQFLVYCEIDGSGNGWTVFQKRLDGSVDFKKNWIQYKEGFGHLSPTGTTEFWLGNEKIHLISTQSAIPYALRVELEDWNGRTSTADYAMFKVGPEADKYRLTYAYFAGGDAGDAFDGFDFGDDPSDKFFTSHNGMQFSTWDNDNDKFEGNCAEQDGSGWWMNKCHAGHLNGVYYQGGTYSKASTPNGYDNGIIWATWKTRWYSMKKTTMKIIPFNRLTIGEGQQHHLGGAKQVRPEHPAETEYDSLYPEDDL


Key:
[1] = system: M1 protein-induced release of HBP from PMNs in human blood; settings: M1 protein 1 μg/ml, 30 min 37° C., FIG. 2 and FIG. 5B
Method: (§1) HBP release. 100 μl human blood were diluted in PBS to a final volume of 1.0 ml and incubated with various PMNs-activating components for 30 min at 37° C. Cells were centrifuged (300×g for 15 min) and the supernatant was analyzed by sandwich ELISA. In order to quantify the total amount of HBP in blood, cells were lysed with 0.02% (v/v) Triton X-100, and pelleted as described above.

[2] = system: mice of the C57BL/6 strain; settings: for breathing of mice: thirty minutes after i.v. M1 protein 15 μg/animal, alone or plus peptide 400 μg/animal; for lung damage after injection of the protein alone, scanning electron microscopy / lung lesions after injection of the protein alone, light microscopy: i.v., M1 protein 15 μg/animal, 30 min
PMNs in human blood = assay: HBP release in human blood by streptococcal and other PMN-activating components; assay type: cell-based; settings: for release of HBP: added to human blood, HBP in supernatant by ELISA, FIG. 1
Method: as §1

fibrinogen [3] = target: T1, fibrinogen; assay: Fibrinogen binding on Western blot; settings: literature statement, demonstrated in the applicant's blot probed with fibrinogen 2 μg/ml
Method: SDS-polyacrylamide gel electrophoresis, Western blotting, and immunoprinting. Proteins were separated by 12.5% (w/v) polyacrylamide gel electrophoresis in the presence of 1% (w/v) SDS (Laemmli, 1970, Nature, 227, 680-685). Molecular weight markers were from Sigma Chemical Co. (St. Louis, Mo.). The resolved proteins were visualized by the silver stain technique. Proteins were also transferred onto nitrocellulose membranes for 30 min at 100 mA (Khyse-Andersen, 1984, J. Biochem. Biophys. Methods, 10, 203-209). The membranes were blocked with PBS containing 5% (w/v) dry milk powder and 0.05% (w/v) Tween-20, pH 7.4. Immunoprinting of the transferred proteins was done according to Towbin et al. (Towbin et al., 1979, Proc. Natl. Acad. Sci. USA, 76, 4350-4354). Polyclonal antibodies against M1 protein, diluted 1:50000 in the blocking buffer, was used. Bound antibodies were detected using a peroxidase-conjugated secondary antibodies against rabbit IgG (dilution 1:3000) followed by a chemiluminescence detection method. Alternatively, membranes were blocked, incubated with fibrinogen (2 μg/ml) followed by immunodetection with antibodies to fibrinogen (1:1000) and peroxidase-conjugated secondary antibodies against rabbit immunoglobulin (1:3000 diluted).

Fibrinogen [4] = target: T2, Fibrinogen (human, UniProt P02671 20-630; P02675 31-491; P02679 27-453); assay: ligand blot: SDS-PAGE, transfer to nitrocellulose, probed with fibrinogen, immunodetection of bound fibrinogen
T2 construct: also called human fibrinogen; purified fibrinogen

Row | Molecule | effect on M1 protein-induced release of HBP [1] | release of HBP (PMNs in human blood; 30 min 37° C.) | further results
1 | COc1cc2ncnc(Nc3cccc(Cl)c3)c2cc1OC [AG1478] | did not interfere with the secretion of HBP |  | 
2 | O=C(O)CN(CCOCCOCCN(CC(=O)O)CC(=O)O)CC(=O)O [EGTA] | blocked HBP release |  | 
3 | CN(C)CCCn1cc(C2=C(c3c[nH]c4ccccc34)C(=O)NC2=O)c2ccccc21 [GF109203] | did not interfere with the secretion of HBP |  | 
4 | N=C(N)NCCC[C@H](NC(=O)[C@H](Cc1c[nH]cn1)NC(=O)CN)C(=O)N1CCC[C@H]1C(=O)O [Gly-His-Arg-Pro] (H-GHRP-OH) |  |  | breathing of mice [2]: clearly affected
5 | O=S(=O)(NCCNC/C=C/c1ccc(Br)cc1)c1cccc2cnccc12 [H-89] | did not interfere with the secretion of HBP |  | 
6 | COc1cccc(-c2cc(=O)c3ccccc3o2)c1N [PD98059] | did not interfere with the secretion of HBP |  | 
7 | COc1ccc2c(c1)CC[C@@H]1[C@@H]2CC[C@]2(C)[C@@H](NCCCCCCN3C(=O)C=CC3=O)CC[C@@H]12 [U-73122] | did not interfere with the secretion of HBP |  | 
8 | CSCC[C@H](NC=O)C(=O)N[C@@H](CC(C)C)C(=O)N[C@@H](Cc1ccccc1)C(=O)O [fMLP, formyl-methionyl-leucyl-phenylalanine] |  | evoked secretion of HBP | 
9 | O=c1c(-c2ccc(O)cc2)coc2cc(O)cc(O)c12 [genistein] | blocked the release of HBP almost completely |  | 
10 | M1 protein: recombinant M1 protein of Streptococcus pyogenes expressed in E. coli (SEQ ID NO: 1) |  |  | HBP stored in PMNs mobilized (PMNs in human blood; M1 protein final concentration 1 μg/ml, human whole blood, 30 min 37° C., FIG. 1A): about 63%; M1 protein concentration of maximal release of HBP from PMNs (PMNs in human blood; blood diluted 1/10, FIG. 3B): 1 µg/mL; binding of fibrinogen (fibrinogen [3]): binds fibrinogen with high affinity; ratio of lung area containing protein aggregates versus total lung area ([2]; M1 protein alone i.v., six lung sections per animal, electron microscopy): 90±2%; lung damage after injection of the protein alone, scanning electron microscopy [2]: severe leakage of erythrocytes; lung lesions after injection of the protein alone, light microscopy [2]: severe hemorrhage and tissue destruction; breathing of mice [2]: clearly affected
11 | SpeB: streptococcal cysteine proteinase |  | did not induce HBP release | 
12 | hyaluronic acid |  | did not induce HBP release | 
13 | lipoteichoic acid |  | evoked secretion of HBP | 
14 | pertussis toxin | none of the two components inhibited the release of HBP |  | 
15 | Protein H (IgG-binding surface protein of S. pyogenes AP1), recombinant from E. coli (other, also called purified protein H) EGAKIDWQEEYKKLDEDNAKLVEVVETTSLENEKLKSENEENKKNLDKLSKENQGKLEKLELDYLKKLDHEHKEHQKEQQEQEERQKNQEQLERKYQREVEKRYQEQLQKQQQLETEKQISEASRKSLSRDLEASRAAKKDLEAEHQKLEAEHQKLKEDKQISDASRQGLSRDLEASRAAKKELEANHQKLEAEHQKLKEDKQISDASRQGLSRDLEASRAAKKELEANHQKLEAEAKALKEQLAKQAEELAKLRAGKASDSQTPDTKPGNKAVPGKGQAPQAGTKPNQNKAPMKETKRQLPST |  |  | binding result (Fibrinogen [4]): no binding
16 | protein H: IgG-binding surface protein of AP1 bacteria, closely related to M1 protein, does not bind fibrinogen (protein) EGAKIDWQEEYKKLDEDNAKLVEVVETTSLENEKLKSENEENKKNLDKLSKENQGKLEKLELDYLKKLDHEHKEHQKEQQEQEERQKNQEQLERKYQREVEKRYQEQLQKQQQLETEKQISEASRKSLSRDLEASRAAKKDLEAEHQKLEAEHQKLKEDKQISDASRQGLSRDLEASRAAKKELEANHQKLEAEHQKLKEDKQISDASRQGLSRDLEASRAAKKELEANHQKLEAEAKALKEQLAKQAEELAKLRAGKASDSQTPDTKPGNKAVPGKGQAPQAGTKPNQNKAPMKETKRQLPST |  | Only minute amounts | binding of fibrinogen (fibrinogen [3]): shows no interaction with fibrinogen; lung damage after injection of the protein alone, scanning electron microscopy [2]: did neither cause serious bleeding; lung lesions after injection of the protein alone, light microscopy [2]: no hemorrhage
